Values joined by “and” are separate entries in the source; they are usually repeats but may differ in a detail not shown here. Identical values can stand only once. Like-named read-outs stand apart in the source and are kept apart here.
Columns and labels:
full-length NDM-1 [1] = biological target: T1, full-length NDM-1 (Klebsiella pneumoniae, UniProt C7C422); type: biochemical, E. coli; design: The full-length NDM-1 enzyme was isolated to 95% purity as indicated by the SDS-PAGE; His6 tag (pET30a leader) (N, cleaved yes); made in house; host or cells: E. coli BL21 (DE3) carrying pET30a-NDM-1
T1 sequence (C7C422 29-270 limits assumed): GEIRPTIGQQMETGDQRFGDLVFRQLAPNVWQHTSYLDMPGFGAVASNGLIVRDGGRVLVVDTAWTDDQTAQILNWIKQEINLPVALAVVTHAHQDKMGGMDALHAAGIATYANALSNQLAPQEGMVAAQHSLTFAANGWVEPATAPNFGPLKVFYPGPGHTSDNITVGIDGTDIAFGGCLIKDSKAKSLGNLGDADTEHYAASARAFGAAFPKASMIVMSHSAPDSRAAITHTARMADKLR
Description: (§1) Benzylpenicillin (Sangon, Shanghai, China), ampicillin (Sangon, Shanghai, China), cefuroxime (Sigma, St. Louis, USA), ceftazidime (TCI, Shanghai, China), ceftizoxime (TCI, Shanghai, China), cefpiramide (Shandong Lukang, Shandong, China), imipenem (Shenzhen Haibin, Guangdong, China), meropenem (Zhejiang Hisun, Zhejiang, China) and aztreonam (Hunan Kelun, Hunan, China) were used as substrates for determining the steady-state kinetic constants.
(§2) Hydrolysis of the antibiotics by NDM-1 was followed by monitoring the variation in the absorbance of the β-lactam solution in 20 mM HEPES buffer, pH 6.8, 0.25 M NaCl, 2 mM 1,4-Dithio-DL-threitol (DTT) (Sangon, Shanghai, China), 100 µM Zn(NO3)2. All the measurements were made on a UV−1800 spectrophotometer (Mapada, Shanghai, China). The reactions were performed in a total volume of 100 µl at 30°C. BSA (20 µg/ml) was added to diluted solutions of β-lactamase in order to prevent enzyme denaturation. […] The extinction coefficients and wavelengths used in the assays were those described by Laraki et al and Thomas et al. The steady-state kinetic parameters (K m and k cat) were determined more than three times by fitting the concentration dependence of initial rate measurements to the Michaelis−Menten equation using GraphPad Prism (GraphPad Software, La Jolla, America).

full-length NDM-1 [2] = biological target: T1, full-length NDM-1; assay: biochemical
Experimental: The compounds to be tested were dissolved in DMSO prior to incubation with the enzyme, with the final concentration of DMSO in the assay not exceeding 0.5% (vol/vol). At concentrations below 0.5%, no effect of DMSO on the enzyme activity was observed. IC50s were deduced from a plot of percent loss of activity versus inhibitor concentration. […] The precision of these determinations was within the range of precision 10%.

[3] = Solubility behaviour in testing buffer of the IC50 assay; type: physicochemical; conditions: result in words
[4] = tested on: E. coli BL21 (DE3)/pET30a-NDM-1; assay: microbe, parasite or virus in culture; type: cell-based; conditions: for synergistic antibacterial activity with meropenem / sensitization of the strain to clinically achievable concentrations of meropenem: result in words; for sensitization of the strain to clinically achievable concentrations of meropenem: inhibitor at the level of 100 µM
Experimental: E. coli BL21 (DE3) was used as a control in the experiment. E. coli BL21 (DE3)/pET30a-NDM-1 was grown overnight in MH broth media (Tianhe Microbial Agents, Hangzhou, China) containing kanamycin (30 µg/ml) at 37°C. Determination of antibacterial synergy was completed using a twofold serial dilution method, as recommended by CLSI guidelines. […] The 96-well microplates were incubated at 37°C with continuous shaking for 18 h and a reading at 630 nm was taken to determine minimum inhibitory concentrations (MICs), [22]. […] Each concentration reading was repeated three times. All of the above experiments were repeated at least twice.

[5] = tested on: Cc1cc(O)c(C(=O)N[C@@H](C(=O)N[C@@H]2C(=O)N3C(C(=O)O)=C(CSc4nnnn4C)CS[C@H]23)c2ccc(O)cc2)cn1; assay: purified protein, by the assay type; conditions: other: substrate hydrolysis, 20 mM HEPES pH 6.8, 30°C
[6] = tested on: CO/N=C(\C(=O)N[C@@H]1C(=O)N2C(C(=O)O)=CCS[C@H]12)c1csc(N)n1; assay: purified protein, by the assay type; conditions: other: substrate hydrolysis, 20 mM HEPES pH 6.8, 30°C
[7] = tested on: CC(C)(O/N=C(\C(=O)N[C@@H]1C(=O)N2C(C(=O)[O-])=C(C[n+]3ccccc3)CS[C@H]12)c1csc(N)n1)C(=O)O; assay: purified protein, by the assay type; type: biochemical, E. coli; conditions: other: substrate hydrolysis, 20 mM HEPES pH 6.8, 30°C
Description: as §1, §2

[8] = tested on: CO/N=C(\C(=O)N[C@@H]1C(=O)N2C(C(=O)O)=C(COC(N)=O)CS[C@H]12)c1ccco1; assay: purified protein, by the assay type; type: biochemical, E. coli; conditions: other: substrate hydrolysis, 20 mM HEPES pH 6.8, 30°C
Description: as §1, §2

[9] = tested on: C[C@@H](O)[C@H]1C(=O)N2C(C(=O)O)=C(SCCN=CN)C[C@H]12; assay: purified protein, by the assay type; type: biochemical, E. coli; conditions: other: substrate hydrolysis, 20 mM HEPES pH 6.8, 30°C
Description: as §1, §2

[10] = tested on: CC1(C)S[C@@H]2[C@H](NC(=O)[C@H](N)c3ccccc3)C(=O)N2[C@H]1C(=O)O; assay: purified protein, by the assay type; type: biochemical, E. coli; conditions: other: substrate hydrolysis, 20 mM HEPES pH 6.8, 30°C
Description: as §1, §2

[11] = tested on: CC1(C)S[C@@H]2[C@H](NC(=O)Cc3ccccc3)C(=O)N2[C@H]1C(=O)O; assay: purified protein, by the assay type; type: biochemical, E. coli; conditions: other: substrate hydrolysis, 20 mM HEPES pH 6.8, 30°C
Description: as §1, §2

E. coli BL21 (DE3) = assay: MIC of meropenem against control strain; type: cell-based; conditions: Escherichia coli
Experimental: E. coli BL21 (DE3)/pET30a-NDM-1, which is similar to clinical NDM-1-carrying isolates and safer than clinical isolates, was used to evaluate the potential ability of NDM-1 inhibitors to reverse NDM-1-mediated carbapenem resistance in bacteria. E. coli BL21 (DE3) was used as a control in the experiment. E. coli BL21 (DE3)/pET30a-NDM-1 was grown overnight in MH broth media (Tianhe Microbial Agents, Hangzhou, China) containing kanamycin (30 µg/ml) at 37°C. Determination of antibacterial synergy was completed using a twofold serial dilution method, as recommended by CLSI guidelines. […] The 96-well microplates were incubated at 37°C with continuous shaking for 18 h and a reading at 630 nm was taken to determine minimum inhibitory concentrations (MICs), [22]. […] Each concentration reading was repeated three times. All of the above experiments were repeated at least twice.

[12] = substrate hydrolysis, 20 mM HEPES pH 6.8, 30°C

Row | Molecule | K m (full-length NDM-1 [1]; [12]) | IC50 (full-length NDM-1 [2]) [µM] | MICs of meropenem in combination with NDM-1 inhibitors ([4]; inhibitor at 6.25 µM) [µg/mL] | MICs of meropenem in combination with NDM-1 inhibitors ([4]; inhibitor at 12.5 µM) [µg/mL] | MICs of meropenem in combination with NDM-1 inhibitors ([4]; inhibitor at 25.0 µM) [µg/mL] | MICs of meropenem in combination with NDM-1 inhibitors ([4]; inhibitor at 50.0 µM) [µg/mL] | synergistic antibacterial activity with meropenem [4] | further results
1 | CO/N=C(\C(=O)N[C@@H]1C(=O)N2C(C(=O)O)=CCS[C@H]12)c1csc(N)n1 [Ceftizoxime, ceftizoxime] | 29 ± 2 µM | – | – | – | – | – | – | –
2 | COC(=O)c1sc(C(=O)OC)c(OCc2nnn[nH]2)c1OCc1nnn[nH]1 [Compound 3] | – | 980 | 256 | 256 | 128 | 32 | showed synergistic antibacterial activity | solubility [3]: better solubility; MICs of meropenem in combination with NDM-1 inhibitors ([4]; inhibitor at 100.0 µM): 32 µg/mL
3 | COC(=O)c1sc(C(=O)OC)c(OCc2ccccc2)c1OCc1ccccc1 [Compound 2] | – | > 100 | 256 | 256 | 256 | 256 | did not exhibited synergistic antibacterial effect | solubility [3]: precipitated out at high concentrations
4 | C[C@H]1[C@H](NC(=O)/C(=N\OC(C)(C)C(=O)O)c2csc(N)n2)C(=O)N1S(=O)(=O)O [Aztreonam, aztreonam] | – | – | – | – | – | – | – | hydrolysis by NDM-1 / kinetic constants (full-length NDM-1 [1]; result in words): kinetic constants could not be calculated
5 | CC(C)(O/N=C(\C(=O)N[C@@H]1C(=O)N2C(C(=O)[O-])=C(C[n+]3ccccc3)CS[C@H]12)c1csc(N)n1)C(=O)O [Ceftazidime, ceftazidime] | 129 ± 9 µM | – | – | – | – | – | – | K m (full-length NDM-1 [1]; substrate hydrolysis, 20 mM HEPES pH 6.8, 30°C, listed as ceftazidime): 129 µM
6 | COC(=O)c1cc(OCc2ccccc2)c(C(=O)OC)s1 [Compound 1] | – | > 300 | 256 | 256 | 256 | 256 | did not exhibited synergistic antibacterial effect | solubility [3]: precipitated out at high concentrations
7 | O=C(O)C(C(=O)O)c1ccsc1 [Compound 5, 3-thiophenemalonic acid] | – | 610 | 256 | 128 | 64 | 32 | showed synergistic antibacterial activity | MICs of meropenem in combination with NDM-1 inhibitors ([4]; inhibitor at 100.0 µM): 16 µg/mL; sensitization of the strain to clinically achievable concentrations of meropenem [4]: able to sensitize the strain to clinically achievable concentrations of meropenem
8 | O=C(O)C(C(=O)O)c1cc(Cc2nnn[nH]2)sc1Cc1nnn[nH]1 [Compound 4] | – | 280 | 128 | 64 | 64 | 32 | showed synergistic antibacterial activity | solubility [3]: stronger solubility; MICs of meropenem in combination with NDM-1 inhibitors ([4]; inhibitor at 100.0 µM): 16 µg/mL; sensitization of the strain to clinically achievable concentrations of meropenem [4]: able to sensitize the strain to clinically achievable concentrations of meropenem
9 | C[C@@H](O)[C@H]1C(=O)N2C(C(=O)O)=C(SCCN=CN)C[C@H]12 [Imipenem, imipenem] | 127 ± 11 µM | – | – | – | – | – | – | K m (full-length NDM-1 [1]; substrate hydrolysis, 20 mM HEPES pH 6.8, 30°C, listed as imipenem): 127 µM
10 | full-length NDM-1 (Klebsiella pneumoniae) | – | – | – | – | – | – | – | kcat [5]: 1.4 s⁻¹; kcat/Km [5]: 40000 M⁻¹ s⁻¹; kcat [6]: 3 s⁻¹; kcat/Km [6]: 100000 M⁻¹ s⁻¹; kcat [7]: 3.6 s⁻¹; kcat/Km [7]: 30000 M⁻¹ s⁻¹; kcat [8]: 2.6 s⁻¹; kcat/Km [8]: 220000 M⁻¹ s⁻¹; kcat [9]: 10 s⁻¹ and 10.8 s⁻¹; kcat/Km [9]: 90000 M⁻¹ s⁻¹; kcat [10]: 10 s⁻¹ and 11.4 s⁻¹; kcat/Km [10]: 630000 M⁻¹ s⁻¹; kcat [11]: 10 s⁻¹ and 16.7 s⁻¹; kcat/Km [11]: 1.28e+06 M⁻¹ s⁻¹
11 | CC1(C)S[C@@H]2[C@H](NC(=O)Cc3ccccc3)C(=O)N2[C@H]1C(=O)O [Benzylpenicillin] | 13 ± 1 µM | – | – | – | – | – | – | K m (full-length NDM-1 [1]; substrate hydrolysis, 20 mM HEPES pH 6.8, 30°C, listed as benzylpenicillin): 13 µM
12 | Cc1cc(O)c(C(=O)N[C@@H](C(=O)N[C@@H]2C(=O)N3C(C(=O)O)=C(CSc4nnnn4C)CS[C@H]23)c2ccc(O)cc2)cn1 [Cefpiramide, cefpiramide] | 39 ± 3 µM | – | – | – | – | – | – | –
13 | CC1(C)S[C@@H]2[C@H](NC(=O)[C@H](N)c3ccccc3)C(=O)N2[C@H]1C(=O)O [Ampicillin, ampicillin] | 18 ± 1 µM | – | – | – | – | – | – | K m (full-length NDM-1 [1]; substrate hydrolysis, 20 mM HEPES pH 6.8, 30°C, listed as ampicillin): 18 µM
14 | CO/N=C(\C(=O)N[C@@H]1C(=O)N2C(C(=O)O)=C(COC(N)=O)CS[C@H]12)c1ccco1 [Cefuroxime, cefuroxime] | 12 µM and 12 ± 1 µM | – | – | – | – | – | – | –
15 | C[C@@H](O)[C@H]1C(=O)N2C(C(=O)O)=C(S[C@@H]3CN[C@H](C(=O)N(C)C)C3)[C@H](C)[C@H]12 [Meropenem, meropenem] | 68 ± 6 µM | – | – | – | – | – | – | MIC (E. coli BL21 (DE3)): 2 µg/mL; MIC ([4]; Escherichia coli): 256 µg/mL; V max (full-length NDM-1 [1]; [12]): 2.0 ± 0.15 µM/s; k cat (full-length NDM-1 [1]; [12]): 4.0 s⁻¹; K m (full-length NDM-1 [1]; substrate hydrolysis, 20 mM HEPES pH 6.8, 30°C, listed as meropenem): 68 µM

Reference: article PMC3652859, “Inhibitor Discovery of Full-Length New Delhi Metallo-β-Lactamase-1 (NDM-1)” (PLoS ONE, 2013)
